This note sets out measurements from US8772251B2, “Use of isothiocyanate derivatives as anti-myeloma agents” (Indena S.p.A., priority 2008, dated 2014).

Read-outs that look alike come from different tables or passages of the source.

A word on the IC50: it is the concentration needed to halve the response being measured.

One assay deals with A2780. Nature of the assay: Cytotoxic activity, cell count (24 h). In kind it is cell-based. The source says:
(§1) Cytotoxic activity of the Moringa derived isothiocyanate (GMG-ITC) on a panel of human tumor cell lines.

For another assay, the system named is H460 S5. The assay can be described thus: Cytotoxic activity, cell count (24 h). The assay is classed as cell-based. The conditions noted are these: Homo sapiens, read-out: Cell count (24 h) IC50.
Text: as §1

The subject of the next assay is H460 wt. The assay can be described thus: Cytotoxic activity, cell count (24 h). In kind it is cell-based. Conditions: Homo sapiens, read-out: Cell count (24 h) IC50.
Text: as §1

The test system of a further assay is HCT116 p53+/+. Nature of the assay: Cytotoxic activity, cell count (24 h). In kind it is cell-based. Conditions: Homo sapiens, read-out: Cell count (24 h) IC50.
Text: as §1

For the next assay, the system named is HCT116 p53−/−. The assay can be described thus: Cytotoxic activity, cell count (24 h). The assay is classed as cell-based. The conditions noted are these: Homo sapiens, read-out: Cell count (24 h) IC50.
Text: as §1

Another assay deals with HL60. The assay can be described thus: Cytotoxic activity, cell count (24 h). The assay is classed as cell-based. The conditions noted are these: Homo sapiens, read-out: Cell count (24 h) IC50.
Text: as §1

A further assay has as its system MCF7 NEO. The assay can be described thus: Cytotoxic activity, cell count (24 h). In kind it is cell-based. The conditions noted are these: Homo sapiens, read-out: Cell count (24 h) IC50.
Text: as §1

In the next assay the test system is MCF7 π. Nature of the assay: Cytotoxic activity, cell count (24 h). The assay is classed as cell-based. Conditions: Homo sapiens, read-out: Cell count (24 h) IC50.
Text: as §1

Another assay concerns RPMI-8226. The assay can be described thus: Cytotoxic activity, cell count (24 h). In kind it is cell-based. The conditions noted are these: Homo sapiens, read-out: Cell count (24 h) IC50.
Text: as §1

Assay [1] relates to human myeloma tumor cell lines s.c. transplanted. The assay can be described thus: Antitumor activity in vivo in SCID mice bearing s.c. transplanted human myeloma. From the text:
In the table 3 is reported the antitumor activity of the GMG-ITC administered in vivo in SCID mice bearing human myeloma tumor cell lines s.c. transplanted.

Assay [2] deals with human ovarian carcinoma A2780. Nature of the assay: Antitumor activity in vivo against human ovarian carcinoma A2780.
In assay [3] the test system is H460 human lung tumor cell line. The assay can be described thus: Sensitivity of H460 cells to glucomoringin with or without myrosinase (cell growth relative to control). In kind it is cell-based. Conditions: GMG 100 μM, no MYR.

For `CC1OC(Oc2ccc(CN=C=S)cc2)C(O)C(O)C1O` (centres unmarked) [GMG-ITC], the IC50 in the assay with A2780 (Homo sapiens, A2780, 24 h, read-out: Cell count (24 h) IC50) came to 15 ± 3 µM; in the assay with H460 S5 (NCI-H460, 24 h), 18 ± 6.7 µM; with H460 wt (NCI-H460, 24 h), 29 ± 0.8 µM; in the assay on HCT116 p53+/+ (HCT-116, 24 h), 12 ± 0.3 µM; with HCT116 p53−/− (HCT-116, 24 h), 13 ± 0.25 µM; with HL60 (HL-60, 24 h), 15 ± 1 µM. Further, the IC50 was found to be 20 ± 4.4 µM in the assay on MCF7 NEO (MCF7, 24 h); 21 ± 5.7 µM with MCF7 π (MCF7, 24 h); 6 ± 1 µM with RPMI-8226 (RPMI-8226, 24 h). For the same compound, the TWI % in assay [1] (i.p. q5dx2w, 20 mg/kg/inj.) stood at 70%; in assay [2] (i.p. q5dx2w, 20 mg/kg/inj.), 46%. Also, in assay [2], the antitumor activity result was “low”.
Regarding `C[C@@H]1O[C@@H](Oc2ccc(C/C(=N/OS(=O)(=O)O)S[C@@H]3O[C@H](CO)[C@@H](O)[C@H](O)[C@H]3O)cc2)[C@H](O)[C@H](O)[C@H]1O` [GMG, glucomoringin], the “% of cells growth relative to control” value in [3] (24 h recovery) turned out to be 100%; in [3] (24 h treatment), 98%; in assay [3] (48 h recovery), 100%; in [3] (time 0), 100%. In assay [1] (p.o. q5dx2, 400 mg/kg/inj.), this compound displayed a TWI % of 62%.
Consider `C[S+]([O-])CCCCN=C=S` (centres unmarked) [GRA, sulphorafane, reference compound], for which the IC50 is 18 ± 1 µM in the assay with A2780 (Homo sapiens, A2780, 24 h; read-out: Cell count (24 h) IC50); 19 ± 1 µM with H460 S5 (NCI-H460, H460 S5, 24 h); 29 ± 0.5 µM with H460 wt (NCI-H460, H460 wt, 24 h); 17 ± 2.3 µM in the assay with HCT116 p53+/+ (HCT-116, HCT116 p53+/+, 24 h); 18 ± 5.3 µM in the assay on HCT116 p53−/− (HCT-116, HCT116 p53−/−, 24 h); 16 ± 1 µM with HL60 (HL-60, HL60, 24 h). Further, the IC50 in the assay with MCF7 NEO (MCF7 NEO, 24 h) was found to be 26 ± 4 µM; in the assay with MCF7 π (MCF7 π, 24 h), 27 ± 4 µM; in the assay on RPMI-8226 (RPMI-8226 (myeloma), 24 h) it was 8 ± 0.2 µM.
